In patent publication US3935199A, “Iminomethylindolines” (Mead Johnson & Company, priority 1974, dated 1976):
Where a name gives a salt, the structure may show the parent alone. Read-outs that look alike come from different tables or passages of the source.

What was measured:
[1] = tested on: phenylquinone writhing syndrome in mice; test: prevention of phenylquinone writhing (analgesic activity); assay type: in vivo; conditions: Mus musculus, sc, 10 min, read-out: ED50 (prevention of phenylquinone writhing)
Method: The prevention of this syndrome is employed as a measure of analgesic activity -- Hendershot and Forsaith, J. Pharmacol. Exp. Therap. […] In this test, groups of 10 to 20 mice are injected subcutaneously with graduated doses of the test compound. At the time of a predetermined peak effect, the animals are administered a dose of 2.5 milligrams per kilogram of body weight of phenylquinone intraperitoneally. The latter injection induces writhing episodes in the mice. […] A log dose-response curve is prepared and the dose of the test compound required to decrease the number of writhing episodes of 50 percent is estimated by interpolation.

[2] = tested on: chloral hydrate treated mice; test: chloral hydrate antagonism test in the mouse (sleeping time); assay type: in vivo, mouse (male albino mice); conditions: oral 20 mg/kg, followed by 300 mg/kg i.p. chloral hydrate, compared to saline-treated control group, read-out: Percent Reduction in Sleeping Time at 20 mg/kg Body Weight
Method: (§1) The compounds of the present invention effectively stimulate the central nervous system of mammals. Compounds having biological activity of this type are generally referred to as being analeptic agents.
According to the chloral hydrate antagonism test, groups of 20 fasted male albino mice are administered an oral dose of 20 milligrams per kilogram of the 1-iminomethylindoline test compound. This is followed immediately by an intraperitoneal dose of 300 milligrams per kilogram of chloral hydrate. The average reduction in sleeping time compared to a saline-treated control group is a measure of the central nervous system stimulant action of the test compound and is as follows for representative 1-iminomethylindolines of this invention.

[3] = tested on: pentobarbital treated cats; test: pentobarbital antagonism test in the cat; assay type: in vivo; conditions: comparison of 4-ethyl-4-methyl-2,6-piperidinedione and the two preferred compounds
Method: as §1
The pentobarbital antagonism test for the compounds of the present invention in the cat is carried out in the following fashion. A cat of either sex wherein a chronically indwelling intravenous cannula has been previously surgically inserted, is placed in an observation cubicle measuring 2 ft. × 2ft. × 2ft. The cat is allowed to move about freely at the end of a leash. A dose of 12 milligrams per kilogram of body weight of pentobarbital sodium in aqueous solution is infused at the rate of approximately 2 milligrams per kilogram per minute via tubing contained in the leash. One-half hour after the start of this infusion the cat is in a state of light anesthesia characterized by unconsciousness, immobility, relaxed nictating membrane, and is not responsive to handling but has active pinneal, palpebral and paw-pinch withdrawal reflexes. At this time the 1-iminomethylindoline compound is infused in concentration of 10 milligrams per milliter at a rate of 0.2 milliters per minute until (a) consciousness is restored, (b) a total of 25 milligrams per kilogram of body weight of test compound is administered or (c) mounting toxicity interferes. Consciousness is recognized by the presence of alertness to surroundings as indicated by the ability of the cat's eyes to follow a movement of a nearby object and in its attempts to assume an upright position.
Representative compounds of the present invention wherein a dose of up to 25 milligrams per kilogram of body weight restored consciousness to pentobarbital treated cats are Examples 1-4, 7-10, 12, 15, 17-20, (Table III).

motor activity in rats = test: activity cage technique (motor stimulation in rats); assay type: in vivo, rat
Text: The activity cage technique described by J. W. Kissel, Science, 139, 1224 (1963), was used to measure motor stimulation in rats. […] Since motor stimulation is generally associated with analeptic action, the instant compounds of this invention are unique in the respect that while they are analeptic agents they are not motor stimulants.

[4] = tested on: chloral hydrate treated mice; test: chloral hydrate antagonism test in the mouse (sleeping time); assay type: in vivo, mouse (male albino mice); conditions: po, read-out: dose producing a 50 percent reduction of the sleeping time
[5] = subcutaneous, phenylquinone 2.5 mg/kg i.p., episodes counted during 10 minutes
[6] = mouse, 300 mg/kg chloral hydrate, comparative test

| SMILES | ED50 [1, 5] | inhibition in vivo at 20 mg/kg [2] | other results |
| --- | --- | --- | --- |
| CN=CN1CCc2cc([N+](=O)[O-])ccc21.Cl [Example 19, 1-[(Methylimino)methyl]-5-nitro-indoline hydrochloride] | 10.3 mg/kg |  |  |
| CC(C)N=CN1CCc2ccccc21 [Example 2, 1-[(Isopropylimino)methyl]indoline hydrochloride hemihydrate] |  | 38% |  |
| CC(=O)c1ccc2c(c1)CCN2C1=NCCC1 [Example 17, 5-Acetyl-1-[2-(1-pyrrolinyl)]indoline] | 7.7 mg/kg | 62% | comparison of pentobarbital antagonism: restoring consciousness to a pentobarbital treated cat [3]: substantially equiactive; motor activity (motor activity in rats): did not produce an increase in motor activity; ED50 [4, 6]: 10 mg/kg |
| CC(=O)Oc1ccccc1C(=O)O [Aspirin, reference compound] |  |  | ED50 [1]: 20 mg/kg |
| CC(=O)c1ccc2c(c1)CCN2C1=NCCCCC1 [Example 18, 5-Acetyl-1-[7-(3,4,5,6-tetrahydro-2H-azepinyl)]indoline hydrochloride] | 16.2 mg/kg | 17% |  |
| c1ccc2c(c1)CCN2C1=NCCCCC1 [Example 11, 1-[7-(3,4,5,6-Tetrahydro-2H-azepinyl)]-indoline hydrochloride] | 17.1 mg/kg |  |  |
| CN=C(NC)N1CCc2ccccc21 [Example 4, 1-(N,N'-Dimethylamidino)indoline] |  | 24% |  |
| CN=C(C)N1CCc2ccccc21.Cl [Example 3, 1-[1-(Methylimino)ethyl]indoline hydrochloride] | 15.8 mg/kg | 24% |  |
| CCC1(C)CC(=O)NC(=O)C1 [4-ethyl-4-methyl-2,6-piperidinedione, reference compound] |  |  | comparison of pentobarbital antagonism: restoring consciousness to a pentobarbital treated cat [3]: substantially equiactive; ED50 ([4]; Mus musculus): 14.4 mg/kg |
| CN=CN1CCc2ccccc21.Cl [Example 1, 1-[(Methylimino)methyl]indoline hydrochloride] | 21.8 mg/kg |  |  |
| Cl.c1ccc2c(c1)CCN2C1=NCCN1 [Example 13, 1-(2-Imidazolin-2-yl)indoline hydrochloride] | 33.2 mg/kg |  |  |
| Cl.c1ccc2c(c1)CCN2C1=NCCCC1 [Example 10, 1-(3,4,5,6-Tetrahydro-2-pyridyl)-indoline hydrochloride] | 5.7 mg/kg |  |  |
| CC1(C)CCC(N2CCc3ccccc32)=N1 [Example 9, 1-[2-(5,5-Dimethyl-1-pyrrolinyl)]-indoline hydrochloride] |  | 65% | comparison of pentobarbital antagonism: restoring consciousness to a pentobarbital treated cat [3]: substantially equiactive; motor activity (motor activity in rats): did not produce an increase in motor activity; ED50 [4, 6]: 15 mg/kg |
| c1ccc2c(c1)CCN2C1=NCCSC1 [Example 12, 1-[5,6-Dihydro-3-(2H-thiazinyl)]indoline hydrochloride] | 11.3 mg/kg |  |  |
| CC1CCC(N2CCc3ccccc32)=N1 (centres unmarked) [Example 8, 1-[2-(5-Methyl-1-pyrrolinyl)]indoline hydrochloride] | 13 mg/kg | 36% |  |
| c1ccc2c(c1)CCN2C1=NCCC1 [Example 7, 1-[2-(1-Pyrrolinyl)]indoline hydrochloride] | 3.85 mg/kg | 10% |  |
| O=[N+]([O-])c1ccc2c(c1)CCN2C1=NCCCCC1 [Example 21, 1-[7-(3,4,5,6-Tetrahydro-2H-azepinyl)]-5-nitroindoline hydrochloride] |  | 50% |  |
